The values below are quoted from earlier work in patent US8536169B2, “Compounds” (Glaxo Group Limited, priority 2008, dated 2013).

In data set [1] the test system is neutrophils.
For data set [2], the system named is neutrophils. The source holds these as a separate data set.
For the next data set, the system named is Class I PI3-kinases. Particulars: read-out: IC50 against each of the various Class I PI3-kinases.
Data set [3] relates to neutrophils. Particulars: treatment of neutrophils; Thelen et al. 1994.

Turning to wortmannin, the superoxide release entry in the data set on neutrophils [1] is given as “block”. Further, the neutrophil migration entry in the data set with neutrophils [2] was “block”. Further, the IC50 in the data set with Class I PI3-kinases is 1 to 10 nM. For the same compound, the “fMLP-induced respiratory burst response” value with neutrophils [3] is reported as “prevents”.
`O=c1cc(N2CCOCC2)oc2c(-c3ccccc3)cccc12` [LY294002]: in the data set with neutrophils [1], the superoxide release result was “block”. Further, the neutrophil migration result in the data set with neutrophils [2] is “block”. Also, the “inhibitory activity on phospholipases” value in the data set with phospholipases is given as “some inhibitory activity”.

As a reminder, the IC50 is the concentration needed to halve the response being measured.
